Experimental data published in ChEMBL document CHEMBL1157561, “Identification of potent pyrazolo[4,3-h]quinazoline-3-carboxamides as multi-cyclin-dependent kinase inhibitors” (J Med Chem, 2010).
Values after ≈ are worked out from the molar mass of the structure shown.

How the values were obtained:
[1] = biological target: Cyclin-dependent kinase 2/cyclin A (Homo sapiens, UniProt P24941); assay: Inhibition of CDK2/Cyclin A; assay type: protein-complex assay
A2780 = assay: Antiproliferative activity against human A2780 cells after 72 hrs by cell-titer-glo assay; assay type: functional, cell-based; conditions: A2780, 72 h
Aurora kinase A = biological target: T1, Aurora kinase A (Homo sapiens, UniProt O14965); assay: Inhibition of Aurora A
T1 sequence (O14965 whole entry): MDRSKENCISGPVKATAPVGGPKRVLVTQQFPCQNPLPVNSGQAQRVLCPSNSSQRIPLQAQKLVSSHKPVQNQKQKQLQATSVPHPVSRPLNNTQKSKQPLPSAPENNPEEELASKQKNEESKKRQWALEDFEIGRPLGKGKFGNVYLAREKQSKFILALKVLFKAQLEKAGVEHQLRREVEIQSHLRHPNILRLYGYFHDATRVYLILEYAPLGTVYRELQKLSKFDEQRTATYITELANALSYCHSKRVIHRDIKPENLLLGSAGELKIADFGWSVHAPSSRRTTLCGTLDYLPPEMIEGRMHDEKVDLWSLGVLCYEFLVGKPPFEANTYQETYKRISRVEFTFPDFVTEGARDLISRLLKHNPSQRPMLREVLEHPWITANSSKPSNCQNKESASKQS

[2] = Solubility at pH 7.0; assay type: physicochemical; conditions: buffer

| SMILES | IC50 [1] | IC50 (A2780) | IC50 (Aurora kinase A) | solubility [2] |
| --- | --- | --- | --- | --- |
| CNC(=O)c1nn(C)c2c1CCc1cnc(NC3CCN(C)CC3)nc1-2 | 4590 nM | > 10000 nM | > 10000 nM | 220 µM (≈ 78.2 µg/mL) |
| COc1ccc(CNc2ncc3c(n2)-c2c(c(C(N)=O)nn2C)CC3)cc1 | 58 nM | 4140 nM | 1450 nM | < 1 µM |
| CN1CCN(c2cccc(CNc3ncc4c(n3)-c3c(c(C(N)=O)nn3C)CC4)c2)CC1 | 104 nM | 920 nM | 2140 nM | 210 µM (≈ 90.8 µg/mL) |
| CN1CCC(Nc2ncc3c(n2)-c2c(c(C(N)=O)nn2C)CC3)CC1 | 351 nM | 2000 nM | > 10000 nM | > 225 µM |
| CN(O)C(=O)c1nn(C)c2c1CCc1cnc(NC3CCCC3)nc1-2 | 175 nM | 5530 nM | 3060 nM | 29 µM (≈ 9.93 µg/mL) |
| Cn1nc(C(=O)N(O)Cc2ccccc2)c2c1-c1nc(NC3CCCC3)ncc1CC2 | 1370 nM | 6140 nM | 4560 nM | < 1 µM |
| CC(=O)Nc1ccc(CNc2ncc3c(n2)-c2c(c(C(N)=O)nn2C)CC3)cc1 | 13 nM | 903 nM | 672 nM | > 10 µM |
| CN1CCN(C(=O)c2nn(C)c3c2CCc2cnc(NC4CCCC4)nc2-3)CC1 | > 10000 nM | 506 nM | > 10000 nM | 83 µM (≈ 32.8 µg/mL) |
| NC(=O)c1nn(CCO)c2c1CCc1cnc(NC3CCCC3)nc1-2 | 8 nM | 330 nM | 6040 nM | 27 µM (≈ 9.24 µg/mL) |
| Cn1nc(C(N)=O)c2c1-c1nc(NCc3ccccc3)ncc1CC2 | 51 nM | 933 nM | 1000 nM | > 10 µM |
| COc1ccc(-n2nc(C(N)=O)c3c2-c2nc(NC4CCCC4)ncc2CC3)cc1 | 6 nM | 557 nM | 2310 nM | < 1 µM |
| CC(CN(C)C)NC(=O)c1nn(C)c2c1CCc1cnc(NC3CCCC3)nc1-2 (configuration not stated) | 1760 nM | > 10000 nM | > 10000 nM | 171 µM (≈ 68 µg/mL) |
| Cn1nc(C(N)=O)c2c1-c1nc(NCCN3CCOCC3)ncc1CC2 | 209 nM | 8660 nM | > 10000 nM | 214 µM (≈ 76.5 µg/mL) |
| CNC(=O)c1nn(C)c2c1CCc1cnc(NC3CCN(C(=O)N4CCN(C)CC4)CC3)nc1-2 | 1120 nM | > 10000 nM | > 10000 nM | > 10 µM |
| CN1CCN(c2ccc(CNc3ncc4c(n3)-c3c(c(C(N)=O)nn3C)CC4)cc2)CC1 | 17 nM | 1580 nM | 1290 nM | 28 µM (≈ 12.1 µg/mL) |
| CCN1CCC(Nc2ncc3c(n2)-c2c(c(C(N)=O)nn2C)CC3)CC1 | 149 nM | 2460 nM | > 10000 nM | 221 µM (≈ 78.6 µg/mL) |
| CC(=O)N1CCC(n2nc(C(N)=O)c3c2-c2nc(NC4CCCC4)ncc2CC3)CC1 | 7 nM | 70 nM | 1970 nM | 179 µM (≈ 75.8 µg/mL) |
| COc1cccc(CNc2ncc3c(n2)-c2c(c(C(N)=O)nn2C)CC3)c1 | 66 nM | 1980 nM | 1140 nM | 4.4 µM (≈ 1.6 µg/mL) |
| Cn1nc(C(N)=O)c2c1-c1nc(NCc3ccccn3)ncc1CC2 | 87 nM | 5120 nM | 4640 nM | 123 µM (≈ 41.3 µg/mL) |
| CN(C)CCN(C)C(=O)c1nn(C)c2c1CCc1cnc(NC3CCCC3)nc1-2 | > 10000 nM | 5170 nM | > 10000 nM | 189 µM (≈ 75.1 µg/mL) |

Results, then the compound that gave them:

| IC50 [1] | IC50 (A2780) | IC50 (Aurora kinase A) | solubility [2] | SMILES |
| --- | --- | --- | --- | --- |
| 6 nM | 46 nM | > 10000 nM | 181 µM (≈ 71.6 µg/mL) | CN1CCC(n2nc(C(N)=O)c3c2-c2nc(NC4CCCC4)ncc2CC3)CC1 |
| 19 nM | 2550 nM | 4600 nM | > 225 µM | Cn1nc(C(N)=O)c2c1-c1nc(NCCO)ncc1CC2 |
| > 10000 nM | 2200 nM | > 10000 nM | > 225 µM | Cn1nc(C(N)=O)c2c1-c1nc(N)ncc1CC2 |
| 21 nM | 1390 nM | 2310 nM | 138 µM (≈ 46.3 µg/mL) | Cn1nc(C(N)=O)c2c1-c1nc(NCc3cccnc3)ncc1CC2 |
| 23 nM | 840 nM | > 10000 nM | < 1 µM | NC(=O)c1nn(Cc2ccccc2)c2c1CCc1cnc(NC3CCCC3)nc1-2 |
| 12 nM | 1300 nM | 4710 nM | > 225 µM | CN1CCN(C(=O)N2CCC(Nc3ncc4c(n3)-c3c(c(C(N)=O)nn3C)CC4)CC2)CC1 |
| 5 nM | 1000 nM | 442 nM | 108 µM (≈ 49 µg/mL) | NC(=O)c1nn(-c2ccc(S(N)(=O)=O)cc2)c2c1CCc1cnc(NC3CCCC3)nc1-2 |
| 20 nM | 480 nM | 4050 nM | < 1 µM | NC(=O)c1nn(-c2ccccc2)c2c1CCc1cnc(NC3CCCC3)nc1-2 |
| 32 nM | > 10000 nM | > 10000 nM | > 225 µM | CNC(=O)c1nn(C)c2c1CCc1cnc(NC3CCN(C(C)=O)CC3)nc1-2 |
| 81 nM | 567 nM | 1690 nM | < 1 µM | Cn1nc(C(N)=O)c2c1-c1nc(NCc3ccc(Br)cc3)ncc1CC2 |
| 4 nM | 410 nM | > 10000 nM | < 1 µM | Cn1nc(C(N)=O)c2c1-c1nc(NC3CCCCC3)ncc1CC2 |
| 25 nM | 822 nM | > 10000 nM | 168 µM (≈ 74.8 µg/mL) | CNC(=O)c1nn(C)c2c1CCc1cnc(NC3CCN(C(=O)c4ccccc4)CC3)nc1-2 |
| 97 nM | > 10000 nM | > 10000 nM | 36 µM (≈ 11.8 µg/mL) | CNC(=O)c1nn(C)c2c1CCc1cnc(NC3CCCC3)nc1-2 |
| 59 nM | 1590 nM | > 10000 nM | 182 µM (≈ 74.5 µg/mL) | CNC(=O)c1nn(C2CCN(C)CC2)c2c1CCc1cnc(NC3CCCC3)nc1-2 |
| 21 nM | 1240 nM | 1920 nM | 222 µM (≈ 74.5 µg/mL) | Cn1nc(C(N)=O)c2c1-c1nc(NCc3ccncc3)ncc1CC2 |
| 52 nM | 2160 nM | > 10000 nM | 4.9 µM (≈ 1.84 µg/mL) | NC(=O)c1nn(-c2ccccn2)c2c1CCc1cnc(NC3CCCC3)nc1-2 |
| – | 8600 nM | > 10000 nM | 50 µM (≈ 17 µg/mL) | CNC(=O)c1nn(C)c2c1CCc1cnc(NC3CCCCC3)nc1-2 |
| 2490 nM | 7600 nM | > 10000 nM | 182 µM (≈ 64.7 µg/mL) | Cn1nc(C(N)=O)c2c1-c1nc(NCCN3CCCCC3)ncc1CC2 |
| 38 nM | 2360 nM | 890 nM | 138 µM (≈ 56.9 µg/mL) | Cn1nc(C(N)=O)c2c1-c1nc(NCc3ccc(S(C)(=O)=O)cc3)ncc1CC2 |
| 5 nM | 370 nM | > 10000 nM | < 1 µM | NC(=O)c1nn(CC(F)(F)F)c2c1CCc1cnc(NC3CCCC3)nc1-2 |
| 296 nM | 3970 nM | 3840 nM | < 1 µM | Cn1nc(C(=O)N(O)C2CCCCC2)c2c1-c1nc(NC3CCCC3)ncc1CC2 |
| 2 nM | 245 nM | > 10000 nM | 13 µM (≈ 4.06 µg/mL) | Cn1nc(C(N)=O)c2c1-c1nc(NC3CCCC3)ncc1CC2 |
